According to patent US20200199537A1, “LIVER ORGANOID COMPOSITIONS AND METHODS OF MAKING AND USING SAME” (Children's Hospital Medical Center, priority 2017, published 2020):
Like-named read-outs stand apart in the source and are kept apart here.

Columns and labels:
human liver organoids [1] = details: for cell viability: human, 50 μM
[2] = test system: bile transport activity (efflux of fluorescein diacetate) in human liver organoids
Method: To quantify the inhibitory potential for FD excretion, Applicant developed a simple but robust quantification method by determining the fluorescent intensity ratio between outside and inside the organoid by image J (FIG. 4, panel B).
Fluorescein diacetate was used for evaluating bile transport activity in organoids. Around Day 25, the organoids were rinsed with PBS, and, fluorescein diacetate was treated to organoids in medium. […] After treatment or injection of fluorescein diacetate, images were captured on fluorescent microscopy BZ-X710 (Keyence). […] Changes in brightness or contrast during processing were applied equally across the entire image.

[3] = test system: CLF excretion into iPSC-liver organoids; details: human
Source text: To test the clinical relevance of organoid based cholestatic phenotyping method, Applicant employed pharmacogenomics insights into Applicant's system to address the fidelity question.

MRP2 = MRP2 (Homo sapiens, UniProt Q92887); details: previously reported; cited from earlier work
[4] = test system: lipotoxic human liver organoids; assay: Evaluation of viability in organoids on vulnerable (lipotoxic, oleic acid) condition; format: cell-based
Method: Next, 50 μM of Troglitazone was treated with or without 50 μM NAC for 24 h. […] Images were captured sequentially using fluorescent microscopy BZ-9000.

human liver organoids [5] = assay: Lipid accumulation in organoids after oleic acid treatment; format: cell-based; details: 3 days after treatment, 800 μM
Method: Images were captured sequentially using fluorescent microscopy BZ-9000. […] The following regents or kits were used: BODIPY® 493/503 for lipids (Thermo Fisher Scientific), and SiR Actin Kit for cytoskeleton (USA Scientific, FL, USA), CellROX® Green Reagent for ROS (Fisher Scientific), TMRM (Thermo Fisher Scientific) for mitochondria. […] ROS production, mitochondria size and number were analyzed by IMARIS8.

Sequence of MRP2 (Q92887 whole entry): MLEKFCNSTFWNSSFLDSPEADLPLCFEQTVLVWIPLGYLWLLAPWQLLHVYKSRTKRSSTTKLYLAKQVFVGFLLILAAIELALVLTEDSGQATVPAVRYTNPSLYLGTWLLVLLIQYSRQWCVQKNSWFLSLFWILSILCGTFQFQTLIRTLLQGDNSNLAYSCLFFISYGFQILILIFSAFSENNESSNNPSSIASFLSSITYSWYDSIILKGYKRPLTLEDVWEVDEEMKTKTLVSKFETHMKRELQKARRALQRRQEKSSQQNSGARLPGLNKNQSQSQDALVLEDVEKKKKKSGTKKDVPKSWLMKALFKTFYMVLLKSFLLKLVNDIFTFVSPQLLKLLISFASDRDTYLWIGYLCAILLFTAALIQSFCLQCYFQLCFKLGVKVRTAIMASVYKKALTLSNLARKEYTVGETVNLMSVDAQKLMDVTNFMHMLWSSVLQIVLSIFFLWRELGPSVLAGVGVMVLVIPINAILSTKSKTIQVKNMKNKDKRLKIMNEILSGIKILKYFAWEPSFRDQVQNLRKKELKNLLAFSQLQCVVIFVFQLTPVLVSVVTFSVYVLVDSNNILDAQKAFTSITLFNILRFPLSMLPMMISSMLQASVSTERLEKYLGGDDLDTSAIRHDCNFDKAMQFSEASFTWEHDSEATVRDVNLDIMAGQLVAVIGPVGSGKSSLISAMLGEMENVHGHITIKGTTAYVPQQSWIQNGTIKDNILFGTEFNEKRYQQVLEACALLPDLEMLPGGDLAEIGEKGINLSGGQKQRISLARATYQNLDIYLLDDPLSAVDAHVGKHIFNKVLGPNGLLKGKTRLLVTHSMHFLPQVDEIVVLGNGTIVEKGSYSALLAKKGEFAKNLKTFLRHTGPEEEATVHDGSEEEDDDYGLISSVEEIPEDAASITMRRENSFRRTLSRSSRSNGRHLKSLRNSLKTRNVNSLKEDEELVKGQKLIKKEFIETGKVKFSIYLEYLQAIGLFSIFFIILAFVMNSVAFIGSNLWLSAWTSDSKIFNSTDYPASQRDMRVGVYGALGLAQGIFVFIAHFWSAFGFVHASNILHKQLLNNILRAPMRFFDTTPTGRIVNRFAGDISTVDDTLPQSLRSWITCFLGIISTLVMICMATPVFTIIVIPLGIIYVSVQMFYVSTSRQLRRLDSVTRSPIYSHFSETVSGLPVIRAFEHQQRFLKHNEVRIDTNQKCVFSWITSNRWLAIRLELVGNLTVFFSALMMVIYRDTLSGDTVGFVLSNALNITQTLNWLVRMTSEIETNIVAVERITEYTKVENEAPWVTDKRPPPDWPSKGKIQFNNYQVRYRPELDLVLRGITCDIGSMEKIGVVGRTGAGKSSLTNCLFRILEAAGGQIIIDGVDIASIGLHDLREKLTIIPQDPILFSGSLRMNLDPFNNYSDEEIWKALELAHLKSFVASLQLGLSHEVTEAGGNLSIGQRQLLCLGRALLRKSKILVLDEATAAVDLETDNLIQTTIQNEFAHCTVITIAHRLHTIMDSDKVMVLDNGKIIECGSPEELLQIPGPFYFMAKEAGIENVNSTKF

For CCc1nn(CCCN2CCN(c3cccc(Cl)c3)CC2)c(=O)n1CCOc1ccccc1 [Nefazodone], the “cell viability relative to TOL, DICLO and BOS” value (human liver organoids [1]) was “significantly lowered” and the “efflux of FD” value [2] was “significantly decreased”.
In the case of COc1ccccc1Oc1c(NS(=O)(=O)c2ccc(C(C)(C)C)cc2)nc(-c2ncccn2)nc1OCCO [Bosentan], the “specificity of drug induced cholestasis to CYP2C9*2 iPSC lines” value [3] is given as “specific to CYP2C9 poor metabolizer donor-derived HLO”, the “efflux of FD” value [2] is given as “significantly decreased” and the “export by efflux transporter MRP2” value (MRP2) is given as “mediates export”.
With Cc1c(C)c2c(c(C)c1O)CCC(C)(COc1ccc(CC3SC(=O)NC3=O)cc1)O2 (centres unmarked) [Troglitazone] the “cell viability relative to TOL, DICLO and BOS” value (human liver organoids [1]) was “significantly lowered”, the cell viability (human liver organoids [1]; 24 h) was 85% and the cell viability (human liver organoids [1]; 72 h) was 67%. The “cell viability compared to control” value ([4]; lipotoxic condition (800 μM oleic acid 3 days), 50 μM drug, 24 h) was −40%, the “organoid morphology after treatment” value ([4]; lipotoxic condition, 24 h) was “massive fragmentation of organoids” and the “efflux of FD” value [2] was “significantly decreased”.
In the case of CCCCCCCC/C=C\CCCCCCCC(=O)O [oleic acid], the “lipid accumulation in organoids” value (human liver organoids [5]) was “intense”.
For CC(=O)N[C@@H](CS)C(=O)O [NAC, N-acetylcysteine], the “cell viability (rescue from Troglitazone toxicity)” value ([4]; lipotoxic condition, 50 μM Troglitazone with 50 μM NAC, 24 h) was “significantly improved”.
With CN(CCOc1ccc(CC2SC(=O)NC2=O)cc1)c1ccccn1 (centres unmarked) [Rosiglitazone] the “vulnerability of steatotic organoids to drug toxicity” value [4] was “vulnerable”.
